Reference: ChEMBL document CHEMBL3045549, “Solvent-free, green and efficient synthesis of pyrano[4, 3-b]pyrans by grinding and their biological evaluation as antitumor and antioxidant agents” (Med Chem Res, 2013)

How the values were obtained:
MCF7 = assay: Cytotoxicity against human MCF7 cells after 96 hrs by MTT assay; format: functional, cell-based; conditions: MCF7, 96 h
[1] = system: Radical scavenging activity; assay: Antioxidant activity assessed as inhibition of DPPH radical after 30 mins by spectrophotometric analysis; format: functional

IC50 [1]	SMILES	IC50 (MCF7)
739 µM	Cc1cc2c(c(=O)o1)C(c1cccs1)C(C#N)=C(N)O2 (configuration not stated)	15 µM
634 µM	Cc1ccc(C2C(C#N)=C(N)Oc3cc(C)oc(=O)c32)cc1 (configuration not stated)	54 µM
520 µM	COc1ccc(C2C(C#N)=C(N)Oc3cc(C)oc(=O)c32)cc1 (configuration not stated)	57 µM
816 µM	Cc1cc2c(c(=O)o1)C(c1ccc([N+](=O)[O-])cc1)C(C#N)=C(N)O2 (configuration not stated)	42 µM
487 µM	Cc1cc2c(c(=O)o1)C(c1ccc(Cl)cc1)C(C#N)=C(N)O2 (configuration not stated)	32 µM
512 µM	Cc1cc2c(c(=O)o1)C(c1ccc(Br)cc1)C(C#N)=C(N)O2 (configuration not stated)	35 µM
228 µM	Cc1cc2c(c(=O)o1)C(c1ccco1)C(C#N)=C(N)O2 (configuration not stated)	27 µM
943 µM	Cc1cc2c(c(=O)o1)C(c1ccc(C)s1)C(C#N)=C(N)O2 (configuration not stated)	22 µM
616 µM	Cc1cc2c(c(=O)o1)C(c1ccc(Cl)s1)C(C#N)=C(N)O2 (configuration not stated)	12 µM
339 µM	Cc1cc2c(c(=O)o1)C(c1c[nH]c3ccccc13)C(C#N)=C(N)O2 (configuration not stated)	10 µM
567 µM	Cc1cc2c(c(=O)o1)C(c1c[nH]c3ccc(C#N)cc13)C(C#N)=C(N)O2 (configuration not stated)	7 µM
440 µM	Cc1cc2c(c(=O)o1)C(c1c[nH]c3ccc(Br)cc13)C(C#N)=C(N)O2 (configuration not stated)	5 µM
769 µM	Cc1cc2c(c(=O)o1)C(c1ccccc1)C(C#N)=C(N)O2 (configuration not stated)	46 µM
106 µM	O=C1O[C@H]([C@@H](O)CO)C(O)=C1O [ASCORBIC ACID]	–
